Reference: patent publication US9591848B2, “Biofilm resistant polymer materials” (Abilene Christian Univ., priority 2008, dated 2017)
Entries after “also recorded” stand apart in the source; their conditions may differ.

What was measured:
[1] = system: E. coli; assay: Biofilm resistance of UV-cured coatings after E. coli growth and staining; format: cell-based; settings: for biofilm resistance (lack of blue coloring): 15 and 20 weight % monomer in the coating; for biofilm formation: 15 and 20 weight percent monomer, increased E. coli broth concentration, approaching 10^9 cells/mL
Excerpt: Materials and methods were the same as disclosed in the Examples 1 and 2, above, except that the polymers were not adhered to steel, but to 24-well, plastic (i.e., poly(styrene)) culture plates.
The coatings were applied to and UV-cured onto four uncoated 24-well plastic plates to a calculated thickness of two mils. The monomers of the compositions were phenyl acrylate (PA) as the non-biofilm resistant control monomer, 3-chlorophenyl acrylate (CPA), 2,4-dichlorophenyl acrylate (DCPA), 4-bromophenyl acrylate (BPA) and 2,4-dibromophenyl acrylate (DBPA).
The coatings were cured with the curing apparatus and sterilized with 95% ethanol. E. coli was grown in a LB agar broth and added to the cell plates with sterile, deionized water at four concentrations, one concentration per plate. The plates were incubated for twenty-four hours at 37° C. The E. coli was then rinsed from the plates with sterile, deionized water and sprayed with the cytology fixative [poly(ethylene glycol)-based]. After the fixative was air dried it was soaked with 95% ethanol for ten minutes for further sterilization. The plates were then rinsed with sterile, deionized water and four drops of Hema-diff solution were added for four seconds.

[2] = Roughness of cured coatings by atomic force microscopy (Sy, peak to valley distance); format: physicochemical; settings: 5, 10, 15 and 20 weight percent monomer in the coating; FIGS. 1 and 2
Protocol: To determine the roughness of the cured formulations, polymers consisting of each of five monomers were tested using atomic force microscopy (AFM) scanning and applying the non-contact mode dragging of the cantilever. Each of the polymers consisting of the monomers: phenyl acrylate (PA), 3-chlorophenyl acrylate (CPA), 2,4-dichlorophenyl acrylate (DCPA), 4-bromophenyl acrylate (BPA) and 2,4-dibromophenyl acrylate (DBPA) were tested at 5, 10, 15 and 20 percent of the monomer by weight (the “Coating Level”).
Each scanning location was approximately an 80 μm×80 μm area (6400 μm^2). To eliminate the effects of interference on the roughness measurements, two scans were taken at each location in the X and Y direction. These two roughness calculations were averaged to yield the roughness calculation for each location. Three locations were selected for each plate and then the average roughness was calculated for all three locations in order to minimize statistical variance yielding an overall plate roughness average, Sa as determined via Equation 1.
[formula] […] The following equation was used to determine the average peak to valley distance, Sy value, (Equation 2) for each composition at each coating level. Sy=Speak−Svalley Equation 2 The Sy value is the value typically used in the industry to determine the propensity for biofilm resistance of a smooth surface.

Row | Compound | bacterial growth on the coating (blue tinting) ([1]; coating containing the internal control monomer, 24 h at 37° C., FIG. 4) | biofilm inhibitory activity ([1]; monomer without halogens, used as internal standard or control) | smoothness of the coating (Sy) [2] | biofilm resistance (lack of blue coloring) ([1]; FIG. 4) | biofilm formation [1]
1 | C=CC(=O)Oc1ccccc1 [PA, phenyl acrylate, reference compound] | bacterial growth | no biofilm inhibitory activity; also recorded: biologically inactive | did not enhance the smoothness |  | 
2 | C=CC(=O)Oc1ccc(Br)cc1Br [DBPA, 2,4-dibromophenyl acrylate] |  |  |  | excellent biofilm resistance | no evidence of biofilm formation
3 | C=CC(=O)Oc1cccc(Cl)c1 [CPA, 3-chlorophenyl acrylate] |  |  |  | excellent biofilm resistance | no evidence of biofilm formation
4 | C=CC(=O)Oc1ccc(Cl)cc1Cl [DCPA, 2,4-dichlorophenyl acrylate] |  |  |  | excellent biofilm resistance | no evidence of biofilm formation
